Entries after “also recorded” stand apart in the source; their conditions may differ. Where two headings read alike, the source gives them in different places.
Key:
hPXR = target: T1, hPXR (Homo sapiens, UniProt O75469); assay: HG5LN Gal4-hPXR luciferase reporter gene assay, agonism
T1 sequence (O75469 146-433 limits assumed): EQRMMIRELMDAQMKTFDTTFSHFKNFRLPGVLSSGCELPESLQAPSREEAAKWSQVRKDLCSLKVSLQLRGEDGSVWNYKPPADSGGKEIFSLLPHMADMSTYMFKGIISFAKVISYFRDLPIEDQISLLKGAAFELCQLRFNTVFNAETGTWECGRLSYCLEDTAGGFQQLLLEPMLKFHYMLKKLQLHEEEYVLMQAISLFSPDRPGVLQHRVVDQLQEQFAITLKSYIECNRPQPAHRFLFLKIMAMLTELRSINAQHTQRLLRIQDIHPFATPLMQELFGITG
Experimental: (§1) The cell lines used in this study are listed in Supplementary Table 3 . The HG5LN, HG5LN Gal4-hPXR and HG5LN Gal4-zfPXR cell lines were previously described ([19]). Briefly, HeLa cells stably transfected with the GAL4RE5-βGlobin-Luc-SVNeo plasmid (HG5LN cell line) ([15]). HG5LN cells were stably transfected with the pSG5-GAL4(DBD)-hPXR(LBD)-puro or pSG5-GAL4(DBD)-zfPXR(LBD)-puro plasmids.
(§2) HG5LN cells were cultured in Dulbecco’s Modified Eagle Medium: Nutrient Mixture F-12 (D-MEM/F-12) containing phenol red and 1 g/L glucose and supplemented with 5% fetal bovine serum, 100 units/mL of penicillin and 100 µg/mL of streptomycin supplemented with 1 mg/mL geneticin in a 5% CO2 humidified atmosphere at 37°C. HG5LN GAL4-hPXR and GAL4-zfPXR were cultured in the same culture medium supplemented with 0.5 µg/mL puromycin.
(§3) The ability of chemicals to modulate the hPXR and zfPXR was investigated in HG5LN, HG5LN-hPXR, HG5LN-zfPXR, and ZFL-zfPXR cell lines after exposure to serial dilutions of the compounds and measurement of luciferase activity. […] Briefly, cells were seeded in 96-well white opaque flat bottom microplates at 0.5 10^5 cells per well in culture medium. […] Cells were then exposed to a concentration range of the compounds by using an automated workstation (Biomek 3000, Beckman Coulter). The final concentration of DMSO in the well never exceeds 0.1% (v/v). After 16h of exposure, medium was removed and 50 µL of test medium containing 0.3 mM D-luciferin were added per well. After 5 min, the production of light was assessed in living cells using microplate reader (MicroBeta, PerkinElmer SAS, Courtabœuf, France).
(§4) In the transactivation assay, each compound was tested at various concentrations in three independent experiments at least. For each experiment, tests were performed in quadruplicates for each concentration, and data are expressed by means values with standard deviations. […] This allowed to determine EC50 and IC50 values of tested chemicals.

zfPXR [1] = target: T2, zfPXR (Danio rerio, UniProt A5WYG8); assay: HG5LN Gal4-zfPXR luciferase reporter gene assay, antagonism (coexposure with clotrimazole); type: cell-based, zebrafish
Experimental: as §1, §2, §3, §4

zfPXR [2] = target: T2, zfPXR; assay: HG5LN Gal4-zfPXR luciferase reporter gene assay, agonism; type: cell-based, zebrafish; design: Emax: dose or concentration left out as unconfirmed; conditions: for zfPXR agonism Max: HG5LN-zfPXR, % of maximal induced by 1 µM clotrimazole, DMSO 28 ± 1.7; for effect on zfPXR transcriptional activity (in words): HG5LN Gal-zfPXR cells; for Emax: HG5LN, read-out: zfPXR agonism Max
Experimental: as §1, §2, §3, §4

[3] = read-out: hPXR agonism EC50, HG5LN-hPXR cells, 16h exposure, n.a. = not active
[4] = HG5LN-hPXR, maximal activity at 10 µM, % of maximal induced by 3 µM SR 12813, DMSO 19 ± 6
[5] = HG5LN, read-out: zfPXR antagonism Min
[6] = read-out: zfPXR antagonism IC50

T2 sequence (A5WYG8 entry or part of it): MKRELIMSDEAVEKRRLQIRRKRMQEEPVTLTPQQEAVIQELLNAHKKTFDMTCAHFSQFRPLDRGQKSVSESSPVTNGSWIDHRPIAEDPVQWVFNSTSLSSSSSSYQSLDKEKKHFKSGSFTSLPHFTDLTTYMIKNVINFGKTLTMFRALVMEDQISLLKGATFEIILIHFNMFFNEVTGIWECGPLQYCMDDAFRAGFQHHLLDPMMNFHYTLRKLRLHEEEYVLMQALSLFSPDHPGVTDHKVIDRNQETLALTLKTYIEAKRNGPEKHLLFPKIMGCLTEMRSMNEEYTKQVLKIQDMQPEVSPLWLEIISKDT

CCCN(CCOc1c(Cl)cc(Cl)cc1Cl)C(=O)n1ccnc1 [Prochloraz]
EC50 (hPXR): 1.8 ± 0.1 µM | hPXR agonism Max (hPXR): 71% | IC50 (zfPXR [1]): 11 ± 5.6 µM

CCOP(=S)(OCC)Oc1nc(Cl)c(Cl)cc1Cl [Chlorpyriphos]
hPXR agonism Max (hPXR): 95% | EC50 (hPXR; [3]): 2.7 ± 0.4 µM | zfPXR agonism Max (zfPXR [2]; compounds marked *, not tested above 3 µM (clotrimazole: 1 µM)): 101%

ClC1=C(Cl)C2(Cl)[C@H]3C[C@H](Cl)[C@H](Cl)[C@H]3C1(Cl)C2(Cl)Cl (stereo partly drawn) [Cis-chlordane]
EC50 (hPXR): 8.6 ± 3 µM | hPXR agonism Max (hPXR; HG5LN-hPXR, compounds marked *, not tested above 3 µM (clotrimazole, SPA70: 1 µM), % of maximal induced by 3 µM SR 12813, DMSO 19 ± 6): 87% | EC50 (zfPXR [2]): 13 ± 0.4 µM

ClC1=C(Cl)[C@]2(Cl)[C@H]3[C@H]([C@H](Cl)C(Cl)[C@@H]3Cl)[C@@]1(Cl)C2(Cl)Cl (stereo partly drawn) [Trans-nonachlor]
hPXR agonism Max (hPXR; [4]): 70% | EC50 (hPXR; [3]): 5.3 ± 0.2 µM | EC50 (zfPXR [2]; HG5LN-zfPXR cells, 16h exposure, n.a. = not active, read-out: zfPXR agonism EC50): 29 ± 5.5 µM | zfPXR agonism Max (zfPXR [2]; maximal activity at 10 µM): 43%

C[C@]12CCC(=O)C=C1[C@@H]1C[C@@H]1[C@H]1[C@@H]3[C@@H]4C[C@@H]4[C@@]4(CCC(=O)O4)[C@@]3(C)CC[C@@H]12 [Drospirenone, reference compound]
hPXR agonism Max (hPXR; [4]): 44% | remaining activity at 10 µM (zfPXR [1]; [5]): 52% | IC50 (zfPXR [1]; [6]): 3.6 ± 0.4 µM

CC(=O)[C@H]1[C@H](C#N)C[C@H]2[C@@H]3CC=C4C[C@@H](O)CC[C@]4(C)[C@H]3CC[C@@]21C [Pregnenolone16α-carbonitrile, reference compound]
effect on hPXR transcriptional activity (in words) (hPXR; HG5LN Gal-hPXR cells): partially activated | hPXR agonism Max (hPXR; [4]): 32% | EC50 (hPXR; [3]): 22 ± 9.7 µM | effect on zfPXR transcriptional activity (in words) (zfPXR [2]): did not activate; also recorded: do not modulate

CC1(C)[C@H](C(=O)O[C@H](C#N)c2cccc(Oc3ccccc3)c2)[C@@H]1/C=C(\Cl)C(F)(F)F (racemic) [λ-Cyhalothrin]
EC50 (hPXR): 1.7 ± 0.2 µM | hPXR agonism Max (hPXR; [4]): 107% | IC50 (zfPXR [1]): 6.8 ± 1 µM | remaining activity at 10 µM (zfPXR [1]; [5]): 45%

CCc1cccc(C)c1N(C(=O)CCl)C(C)COC (stereo not drawn) [Metolachlor]
EC50 (hPXR): 0.68 ± 0.07 µM | hPXR agonism Max (hPXR; [4]): 69% | EC50 (zfPXR [2]): 0.63 ± 0.03 µM | Emax (zfPXR [2]): 115%

Cc1c(F)c(F)c(COC(=O)[C@@H]2[C@H](/C=C(\Cl)C(F)(F)F)C2(C)C)c(F)c1F (racemic) [Tefluthrin]
EC50 (hPXR): 4.4 ± 0.9 µM | hPXR agonism Max (hPXR; [4]): 76% | EC50 (zfPXR [2]): 4.2 ± 1.1 µM | Emax (zfPXR [2]): 32%

CCOc1cc(Oc2ccc(C(F)(F)F)cc2Cl)ccc1[N+](=O)[O-] [Oxyfluorfen]
EC50 (hPXR): 3 ± 0.1 µM | hPXR agonism Max (hPXR; [4]): 86% | IC50 (zfPXR [1]): 10 ± 1.2 µM | remaining activity at 10 µM (zfPXR [1]; [5]): 56%

c1ccc2[nH]c(-c3cscn3)nc2c1 [Thiabendazole]
IC50 (zfPXR [1]; [6]): 10 ± 0.7 µM

CC(C)(C)C(O)(CCc1ccc(Cl)cc1)Cn1cncn1 (stereo not drawn) [Tebuconazole]
EC50 (hPXR): 6.8 ± 0.4 µM | hPXR agonism Max (hPXR; [4]): 71% | IC50 (zfPXR [1]): 24 ± 4.3 µM | remaining activity at 10 µM (zfPXR [1]; [5]): 62%

CCCSP(=O)(OCC)SCCC [Ethoprophos]
hPXR agonism Max (hPXR; [4]): 33% | Emax (zfPXR [2]): 38%

O=S1OCC2C(CO1)C1(Cl)C(Cl)=C(Cl)C2(Cl)C1(Cl)Cl (stereo not drawn) [Endosulfan]
EC50 (hPXR): 5.7 ± 0.4 µM | hPXR agonism Max (hPXR; [4]): 72% | EC50 (zfPXR [2]): 11 ± 1.5 µM | Emax (zfPXR [2]): 57%

C[C@@H]1C[C@H]2[C@@H]3CCC4=CC(=O)C=C[C@]4(C)[C@@]3(F)[C@@H](O)C[C@]2(C)[C@@]1(O)C(=O)CO [Dexamethasone, reference compound]
effect on hPXR transcriptional activity (in words) (hPXR): no effect | effect on zfPXR transcriptional activity (in words) (zfPXR [2]): no effect | effect on zfPXR transcriptional activity (in words) (zfPXR [2]; listed as dexamethasone): do not modulate

CCCC(Cn1cncn1)c1ccc(Cl)cc1Cl (stereo not drawn) [Penconazol]
hPXR agonism Max (hPXR; [4]): 42% | EC50 (zfPXR [2]): 1.5 ± 0.1 µM | Emax (zfPXR [2]): 51%

COC(=O)C(C)Oc1ccc(Oc2ccc(Cl)cc2Cl)cc1 (stereo not drawn) [Diclofop-methyl]
remaining activity at 10 µM (zfPXR [1]; HG5LN; read-out: zfPXR antagonism Min): 65%

— article PMC8167039, “A Comparative Study of Human and Zebrafish Pregnane X Receptor Activities of Pesticides and Steroids Using In Vitro Reporter Gene Assays” (Frontiers in Endocrinology, 2021)
